≈ marks a conversion by molar mass, not a printed value. Where two headings read alike, the source gives them in different places. Numbered stars: 1 amine (or outer) side, 2 acyl side, 3 side chain; on linkers, the order of the positions; unused ones are H or OH. Bridge positions count the residues as written; N and C are the ends. Square brackets hold non-standard residues; d marks the D form. Peptide text beside a SMILES is read from it. * marks the point of attachment. ξ: configuration not given here. X5 = CCCCCCCCc1ccc(C[C@@H](N[*:1])C(=O)[*:2])cc1; dPhe(4-CN) = N#Cc1ccc(C[C@@H](N)C(=O)O)cc1; Octanoyl(6-Me) = CCC(C)CCCCC(=O)*; Thr(3ξ) = CC(O)[C@H](N)C(=O)O; X4 = CC(C)CC1CNCC(C(=O)*)C1; Dab = NCC[C@H](N)C(=O)O; Dap = NC[C@H](N)C(=O)O
Tests used:
Format in all cases: cell-based
Acinetobacter baumannii = test system: Acinetobacter baumannii
How it was run: (§1)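 MIC (μg/mL) from susceptibility testing; up to nine strains per species, incl. resistant and Polymyxin-elevated-MIC strains.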

Escherichia coli = test system: Escherichia coli
How it was run: as §1

Klebsiella pneumoniae = test system: Klebsiella pneumoniae
How it was run: as §1

Pseudomonas aeruginosa = test system: Pseudomonas aeruginosa
How it was run: as §1

| Structure (SMILES) | MIC A. baumanii 053 (Acinetobacter baumannii) [µg/mL] | MIC A. baumanii 056 (Acinetobacter baumannii) [µg/mL] | MIC A. baumanii ATCC BAA-747 (Acinetobacter baumannii) [µg/mL] | MIC A. baumanii NCTC 13424 (Acinetobacter baumannii) [µg/mL] | MIC E. coli 058 (Escherichia coli) [µg/mL] | MIC E. coli 061 (Escherichia coli) [µg/mL] | MIC E. coli ATCC 25922 (Escherichia coli) [µg/mL] | MIC K. pneumoniae 063 (Klebsiella pneumoniae) [µg/mL] | MIC K. pneumoniae 065 (Klebsiella pneumoniae) [µg/mL] | MIC K. pneumoniae ATCC 4352 (Klebsiella pneumoniae) [µg/mL] | MIC K. pneumoniae ATCC 13882 (Klebsiella pneumoniae) [µg/mL] | MIC P. aeruginosa 068 (Pseudomonas aeruginosa) [µg/mL] | MIC P. aeruginosa 070 (Pseudomonas aeruginosa) [µg/mL] | MIC P. aeruginosa ATCC 27853 (Pseudomonas aeruginosa) [µg/mL] | MIC P. aeruginosa CCUG 59347 (Pseudomonas aeruginosa) [µg/mL] | also measured |
| --- | --- | --- | --- | --- | --- | --- | --- | --- | --- | --- | --- | --- | --- | --- | --- | --- |
| CC(C)C[C@@H]1NC(=O)[C@@H](CC2CCCCC2)NC(=O)[C@H](CCN)NC(=O)[C@@H](NC(=O)[C@H](CCN)NC(=O)[C@@H](NC(=O)C(CCN)C2CCCCC2)[C@@H](C)O)CCNC(=O)[C@H]([C@@H](C)O)NC(=O)[C@H](CCN)NC(=O)[C@H](CCN)NC1=O (single isomer, unassigned; isomer 2) [Example 69, 4-amino-2-cyclohexylbutanoyl polymyxin [D-cyclohexylalanine]-6 nonapeptide isomer 2] | >64 | 64 (≈ 56.3 µM) | 0.25 (≈ 0.22 µM) | 0.06 (≈ 0.0528 µM) | 4 (≈ 3.52 µM) | 16 (≈ 14.1 µM) | 0.06 (≈ 0.0528 µM) | 16 (≈ 14.1 µM) | 0.5 (≈ 0.44 µM) | 0.25 (≈ 0.22 µM) | 0.25 (≈ 0.22 µM) | 4 (≈ 3.52 µM) | 8 (≈ 7.04 µM) | 0.25 (≈ 0.22 µM) | 0.5 (≈ 0.44 µM) | MIC E. coli NCTC 9001 (Escherichia coli): 0.03 µg/mL (≈ 0.0264 µM) |
| CC(C)C[C@@H]1NC(=O)[C@@H](CC2CCCCC2)NC(=O)[C@H](CCN)NC(=O)[C@@H](NC(=O)[C@H](CCN)NC(=O)[C@@H](NC(=O)C(CCN)c2cccs2)[C@@H](C)O)CCNC(=O)[C@H]([C@@H](C)O)NC(=O)[C@H](CCN)NC(=O)[C@H](CCN)NC1=O (single isomer, unassigned; isomer 2) [Example 70, 4-amino-2-(thiophen-2-yl)butanoyl polymyxin [D-cyclohexylalanine]-6 nonapeptide isomer 2] | 32 (≈ 28.2 µM) | 16 (≈ 14.1 µM) | 0.25 (≈ 0.22 µM) | 0.25 (≈ 0.22 µM) | 8 (≈ 7.04 µM) | 32 (≈ 28.2 µM) | 0.125 (≈ 0.11 µM) | 64 (≈ 56.3 µM) | 8 (≈ 7.04 µM) | – | 0.125 (≈ 0.11 µM) | 8 (≈ 7.04 µM) | 32 (≈ 28.2 µM) | 0.25 (≈ 0.22 µM) | 0.5 (≈ 0.44 µM) | – |
| CC(C)CCC(CCN)C(=O)N[C@H](C(=O)N[C@@H](CN)C(=O)N[C@H]1CCNC(=O)[C@H]([C@@H](C)O)NC(=O)[C@H](CCN)NC(=O)[C@H](CCN)NC(=O)[C@H](CC(C)C)NC(=O)[C@@H](CC2CCCCC2)NC(=O)[C@H](CCN)NC1=O)[C@@H](C)O (single isomer, unassigned; isomer 2) [Example 80, 2-(2-aminoethyl)-5-methylhexanoyl L-Thr-L-Dap-polymyxin [D-cyclohexylalanine-6]heptapeptide. isomer 2] | 64 (≈ 57.6 µM) | 32 (≈ 28.8 µM) | 0.125 (≈ 0.113 µM) | 0.125 (≈ 0.113 µM) | 2 (≈ 1.8 µM) | 8 (≈ 7.2 µM) | 0.125 (≈ 0.113 µM) | 8 (≈ 7.2 µM) | 2 (≈ 1.8 µM) | 0.06 (≈ 0.054 µM) | 0.25 (≈ 0.225 µM) | 2 (≈ 1.8 µM) | 2 (≈ 1.8 µM) | 0.25 (≈ 0.225 µM) | 0.5 (≈ 0.45 µM) | MIC E. coli NCTC 9001 (Escherichia coli): 0.03 µg/mL (≈ 0.027 µM) |
| CC(C)C[C@@H]1NC(=O)[C@@H](CC2CCCCC2)NC(=O)[C@H](CCN)NC(=O)[C@@H](NC(=O)[C@H](CCN)NC(=O)[C@@H](NC(=O)CC(CN)C2CCCCC2)[C@@H](C)O)CCNC(=O)[C@H]([C@@H](C)O)NC(=O)[C@H](CCN)NC(=O)[C@H](CCN)NC1=O (single isomer, unassigned; isomer 2) [Example 87, 4-amino-3-cyclohexylbutanoyl polymyxin [D-cyclohexylalanine-6]nonapeptide. Isomer 2] | – | – | – | – | – | – | – | – | – | – | – | – | – | – | – | MIC A. baumanii 053 (Acinetobacter baumannii; strain 053): 64 µg/mL (≈ 56.3 µM); MIC A. baumanii 056 (Acinetobacter baumannii; strain 056): 64 µg/mL (≈ 56.3 µM); MIC A. baumanii ATCC BAA-747 (Acinetobacter baumannii; strain ATCC BAA-747): 0.25 µg/mL (≈ 0.22 µM); MIC A. baumanii NCTC 13424 (Acinetobacter baumannii; strain NCTC 13424): 0.125 µg/mL (≈ 0.11 µM); MIC E. coli 058 (Escherichia coli; strain 058): 4 µg/mL (≈ 3.52 µM); MIC E. coli 061 (Escherichia coli; strain 061): 16 µg/mL (≈ 14.1 µM); MIC E. coli ATCC 25922 (Escherichia coli; strain ATCC 25922): 0.125 µg/mL (≈ 0.11 µM); MIC E. coli NCTC 9001 (Escherichia coli; strain NCTC 9001): 0.125 µg/mL (≈ 0.11 µM); MIC K. pneumoniae 063 (Klebsiella pneumoniae; strain 063): 16 µg/mL (≈ 14.1 µM); MIC K. pneumoniae 065 (Klebsiella pneumoniae; strain 065): 0.5 µg/mL (≈ 0.44 µM); MIC K. pneumoniae ATCC 13882 (Klebsiella pneumoniae; strain ATCC 13882): 0.25 µg/mL (≈ 0.22 µM); MIC P. aeruginosa 068 (Pseudomonas aeruginosa; strain 068): 2 µg/mL (≈ 1.76 µM); MIC P. aeruginosa 070 (Pseudomonas aeruginosa; strain 070): 8 µg/mL (≈ 7.04 µM); MIC P. aeruginosa ATCC 27853 (Pseudomonas aeruginosa; strain ATCC 27853): 0.25 µg/mL (≈ 0.22 µM); MIC P. aeruginosa CCUG 59347 (Pseudomonas aeruginosa; strain CCUG 59347): 0.5 µg/mL (≈ 0.44 µM) |
| CC(C)CCC(CCN)C(=O)N[C@H](C(=O)N[C@@H](CCN)C(=O)N[C@H]1CCNC(=O)[C@H]([C@@H](C)O)NC(=O)[C@H](CCN)NC(=O)[C@H](CCN)NC(=O)[C@H](CC(C)C)NC(=O)[C@@H](CC2CCCCC2)NC(=O)[C@H](CCN)NC1=O)[C@@H](C)O (single isomer, unassigned; isomer 2) [Example 89, 2-(2-aminoethyl)-5-methylhexanoyl polymyxin [D-cyclohexylalanine-6]nonapeptide. Isomer 2] | – | – | 0.5 (≈ 0.445 µM) | 0.25 (≈ 0.222 µM) | 16 (≈ 14.2 µM) | – | 0.125 (≈ 0.111 µM) | – | 32 (≈ 28.5 µM) | – | 0.25 (≈ 0.222 µM) | – | – | 0.5 (≈ 0.445 µM) | 1 (≈ 0.889 µM) | – |
| CCC(CC)CC(CCN)C(=O)N[C@H](C(=O)N[C@@H](CCN)C(=O)N[C@H]1CCNC(=O)[C@H]([C@@H](C)O)NC(=O)[C@H](CCN)NC(=O)[C@H](CCN)NC(=O)[C@H](CC(C)C)NC(=O)[C@@H](CC2CCCCC2)NC(=O)[C@H](CCN)NC1=O)[C@@H](C)O (single isomer, unassigned; isomer 2) [Example 92, 2-(2-aminoethyl)-4-ethylhexanoyl polymyxin [D-cyclohexylalanine]-6 nonapeptide. Isomer 2] | – | – | 0.125 (≈ 0.11 µM) | 0.125 (≈ 0.11 µM) | 4 (≈ 3.51 µM) | – | 0.06 (≈ 0.0527 µM) | – | 8 (≈ 7.03 µM) | – | 0.25 (≈ 0.22 µM) | – | – | 0.25 (≈ 0.22 µM) | 1 (≈ 0.878 µM) | – |
| CCCCCCCCc1ccc(C[C@H]2NC(=O)[C@H](CCN)NC(=O)[C@@H](NC(=O)[C@H](CN)NC(=O)[C@@H](NC(=O)C3CNCC(CC(C)C)C3)C(C)O)CCNC(=O)[C@H]([C@@H](C)O)NC(=O)[C@H](CCN)NC(=O)[C@H](CCN)NC(=O)[C@H](CC(C)C)NC2=O)cc1 (some centres unmarked) [Example 23] (X4-[Thr(3ξ)][Dap][Dab][Dab][X5]L[Dab][Dab]T; lactam 3-C) | 2 (≈ 1.63 µM) | 1 (≈ 0.814 µM) | 2 (≈ 1.63 µM) | – | 2 (≈ 1.63 µM) | 2 (≈ 1.63 µM) | 2 (≈ 1.63 µM) | 8 (≈ 6.51 µM) | 2 (≈ 1.63 µM) | 1 (≈ 0.814 µM) | – | 4 (≈ 3.26 µM) | 4 (≈ 3.26 µM) | 2 (≈ 1.63 µM) | – | MIC E. coli 059 (Escherichia coli): 2 µg/mL (≈ 1.63 µM); MIC E. coli 060 (Escherichia coli): 2 µg/mL (≈ 1.63 µM); MIC K. pneumoniae 062 (Klebsiella pneumoniae): 4 µg/mL (≈ 3.26 µM); MIC K. pneumoniae 064 (Klebsiella pneumoniae): 4 µg/mL (≈ 3.26 µM); MIC K. pneumoniae 066 (Klebsiella pneumoniae): 2 µg/mL (≈ 1.63 µM); MIC K. pneumoniae 067 (Klebsiella pneumoniae): 4 µg/mL (≈ 3.26 µM) |
| CCC(C)CCCCC(=O)N[C@@H](CCN)C(=O)N[C@H](C(=O)N[C@@H](CCN)C(=O)N[C@H]1CCNC(=O)[C@H]([C@@H](C)O)NC(=O)[C@H](CCN)NC(=O)[C@H](CCN)NC(=O)[C@H](CC(C)C)NC(=O)[C@@H](Cc2ccc(C#N)cc2)NC(=O)[C@H](CCN)NC1=O)C(C)O (stereo partly drawn) [Example 24, Polymyxin B[D-(4-cyano)Phe]-6] ({Octanoyl(6-Me)}-[Dab][Thr(3ξ)][Dab][Dab][Dab][dPhe(4-CN)]L[Dab][Dab]T; lactam 4-C) | >64 | >64 | 0.25 (≈ 0.203 µM) | 0.25 (≈ 0.203 µM) | 4 (≈ 3.26 µM) | 16 (≈ 13 µM) | 0.125 (≈ 0.102 µM) | 64 (≈ 52.1 µM) | 8 (≈ 6.51 µM) | 0.125 (≈ 0.102 µM) | – | 32 (≈ 26 µM) | >64 | 0.25 (≈ 0.203 µM) | 0.5 (≈ 0.407 µM) | – |
| CCCCCCCCc1ccc(C[C@H]2NC(=O)[C@H](CCN)NC(=O)[C@@H](NC(=O)[C@H](CN)NC(=O)[C@@H](NC(=O)[C@@H](N)CCN)C(C)O)CCNC(=O)[C@H]([C@@H](C)O)NC(=O)[C@H](CCN)NC(=O)[C@H](CCN)NC(=O)[C@H](CC(C)C)NC2=O)cc1 (stereo partly drawn) [Example 29, L-Dab-L-Thr-L-Dap-polymyxin [D-(4-octyl Phe)]-6 heptapeptide] (H-[Dab][Thr(3ξ)][Dap][Dab][Dab][X5]L[Dab][Dab]T; lactam 4-C) | – | – | 4 (≈ 3.44 µM) | 4 (≈ 3.44 µM) | 32 (≈ 27.6 µM) | – | 2 (≈ 1.72 µM) | – | >64 | – | – | – | – | 4 (≈ 3.44 µM) | 8 (≈ 6.89 µM) | – |
